Measurements: patent US20060084695A1, “Compositions and treatments for inhibiting kinase and/or HMG-CoA reductase” (priority 2004, published 2006)

Test system: oxazolone-induced mouse ear swelling
Test: Inhibition of oxazolone-induced mouse ear swelling (topical inflammation model)
Type: in vivo, BALB/c male mice
Conditions: observations made from Table II
Method: Left ears were untreated. The thickness of both ears of each animal was measured with a Dyer model micrometer gauge 24 hours after oxazolone challenge, and the net increase in thickness of right ears versus left ears was calculated for each animal. Percent inhibition was calculated according to the formula: [(Iv−It)/Iv]×100, where Iv and It respectively refer to the average net increase in right ear thickness (mm) for vehicle and candidate compound treated mice.

With CC(C)c1c(C(=O)Nc2ccccc2)c(-c2ccccc2)c(-c2ccc(F)cc2)n1CC[C@@H]1C[C@@H](O)CC(=O)O1 [Atorvastatin lactone, atorvastatin lactone] the “anti-inflammatory activity in ear swelling assay, comparison in words” value was “most potent anti-inflammatory activity”.
